Measured values taken from patent US7566733B2, “Benzimidazole derivatives useful as selective androgen receptor modulators (sarms)” (priority 2004, dated 2009).

What follows are molecules tested on castrated male Sprague Dawley rats (assay: Ventral Prostate and Seminal Vesicle Weight In Vivo Assay). Details: inhibition of testosterone-enhanced prostate weight; immature castrated rats, once daily for five days, usually orally 40 mg/kg, with testosterone propionate 2 mg/kg s.c.
Protocol: Ventral Prostate and Seminal Vesicle Weight In Vivo Assay; further: key: active: the non weight adjusted prostate weight was ≦40 mg or the % Inhibition prostate weight, body weight adjusted was ≧40%@2 mg/day dosage; inactive: did not meet the specified criteria defined above
Immature (approximately 50 g) castrated male Sprague Dawley rats (Charles River) were treated once daily for five days with test compound (usually given orally at 40 mg/kg in a volume of 0.3 mL, in 30% cyclodextrin or 0.5% methylcellulose vehicle) and with testosterone propionate (given subcutaneously by injection at the nape of the neck at 2 mg/kg, in a volume of 0.1 mL in sesame oil). On the sixth day, the rats were euthanized by asphyxiation in carbon dioxide. Ventral prosatates and seminal vesicles were removed and their wet weights determined. Test compound activity was determined as the percent inhibition of testosterone-enhanced tissue weights, with a vehicle-treated control group set to zero percent and a testosterone alone-treated control group set to 100%.
Representative compounds of the present invention were tested according to the procedure described, with results as listed in Table 7 below. A test compound is listed as “active” if the non weight adjusted prostate weight was ≦40 mg or the % Inhibition prostate weight, body weight adjusted was ≧40%@2 mg/day dosage. ID50's, if determined, of ≦15 mg/day also indicated an “active” compound.
With `CC(=O)Nc1ccc(SCC(C)(O)c2nc3cc(Cl)c(Cl)cc3n2C)cc1` (centres unmarked) [Compound 56, N-{4-[2-(5,6-Dichloro-1-methyl-1H-benzoimidazol-2-yl)-2-hydroxy-propylsulfanyl]-phenyl}-acetamide] the Activity was “inactive”.
In the case of `COCn1c(CC(F)(F)F)nc2cc(Cl)c(Cl)cc21` [Compound 57, 5,6-Dichloro-1-methoxymethyl-2-(2,2,2-trifluoro-ethyl)-1H-benzoimidazole], the Activity is reported as “active”.
In the case of `CSCn1c(CC(F)(F)F)nc2cc(Cl)c(Cl)cc21` [Compound 58, 5,6-Dichloro-1-methylsulfanylmethyl-2-(2,2,2-trifluoro-ethyl)-1H-benzoimidazole], the Activity is reported as “active”.
`COC(c1nc2cc(Cl)c(Cl)cc2n1C)C(F)(F)F` (centres unmarked) [Compound 61] was tested, and the Activity was “active”.
In the case of `CCOC(c1nc2cc(Cl)c(Cl)cc2n1CC)C(F)(F)F` (centres unmarked) [Compound 62], the Activity is reported as “active”.
For `FC(F)(F)Cc1nc2cc(Cl)c(C(F)(F)F)cc2[nH]1` [Compound 68], the Activity was “active”.
For `N#Cc1cc2nc(CC(F)(F)F)[nH]c2cc1C(F)(F)F` [Compound 69], the Activity was “inactive”.
`Cn1c(CC(F)(F)F)nc2cc(Cl)c(Cl)cc21` [Compound 71, 5,6-Dichloro-1-methyl-2-(2,2,2-trifluoro-ethyl)-1H-benzoimidazole] was tested, and the Activity was “active”.
With `FC(F)(F)Cc1nc2cc(Cl)c(Cl)cc2n1COc1ccc(Cl)cc1` [Compound 72] the Activity was “inactive”.
In the case of `CS(=O)(=O)Cn1c(CC(F)(F)F)nc2cc(Cl)c(Cl)cc21` [Compound 73, 5,6-Dichloro-1-methanesulfonylmethyl-2-(2,2,2-trifluoro-ethyl)-1H-benzoimidazole], the Activity is reported as “active”.
With `O=C(Cn1c(CC(F)(F)F)nc2cc(Cl)c(Cl)cc21)c1ccccc1` [Compound 74, 2-[5,6-Dichloro-2-(2,2,2-trifluoro-ethyl)-benzoimidazol-1-yl]-1-phenyl-ethanone] the Activity was “inactive”.
In the case of `O=C(Cn1c(CC(F)(F)F)nc2cc(Cl)c(Cl)cc21)c1ccc(F)cc1` [Compound 75, 2-[5,6-Dichloro-2-(2,2,2-trifluoro-ethyl)-benzoimidazol-1-yl]-1-(4-fluoro-phenyl)-ethanone], the Activity is reported as “active”.
In the case of `O=C(Cn1c(CC(F)(F)F)nc2cc(Cl)c(Cl)cc21)c1ccc([N+](=O)[O-])cc1` [Compound 76, 2-[5,6-Dichloro-2-(2,2,2-trifluoro-ethyl)-benzoimidazol-1-yl]-1-(4-nitro-phenyl)-ethanone], the Activity is reported as “active”.
In the case of `COc1ccc(C(=O)Cn2c(CC(F)(F)F)nc3cc(Cl)c(Cl)cc32)c(OC)c1` [Compound 77, 2-[5,6-Dichloro-2-(2,2,2-trifluoro-ethyl)-benzoimidazol-1-yl]-1-(2,4-dimethoxy-Phenyl)-ethanone], the Activity is reported as “inactive”.
For `O=C(Cn1c(CC(F)(F)F)nc2cc(Cl)c(Cl)cc21)c1ccc(Br)cc1` [Compound 79, 1-(4-Bromo-phenyl)-2-[5,6-dichloro-2-(2,2,2-trifluoro-ethyl)-benzoimidazol-1-yl]-ethanone], the Activity was “inactive”.
With `CCC(=O)Cn1c(CC(F)(F)F)nc2cc(Cl)c(Cl)cc21` [Compound 80, 1-[5,6-Dichloro-2-(2,2,2-trifluoro-ethyl)-benzoimidazol-1-yl]-butan-2-one] the Activity was “active”.
With `CCOC(=O)Cn1c(CC(F)(F)F)nc2cc(Cl)c(Cl)cc21` [Compound 81, [5,6-Dichloro-2-(2,2,2-trifluoro-ethyl)-benzoimidazol-1-yl]-acetic Acid Ethyl Ester] the Activity was “inactive”.
For `O[C@H](c1nc2cc(Cl)c(Cl)cc2[nH]1)C(F)(F)F` [Compound 82, (−)-1-(5,6-DiChloro-1H-benzoimidazol-2-yl-)2,2,2-trifluoro-ethanol], the Activity was “active”.
In the case of `O[C@@H](c1nc2cc(Cl)c(Cl)cc2[nH]1)C(F)(F)F` [Compound 83, (+)-1-(5,6-DiChloro-1H-benzoimidazol-2-yl-)2,2,2-trifluoro-ethanol], the Activity is reported as “active”.
`O=C(Cn1c(CC(F)(F)F)nc2cc(Cl)c(Cl)cc21)c1cc2ccccc2o1` [Compound 84, 1-Benzofuran-2-yl-2-[5,6-dichloro-2-(2,2,2-trifluoro-ethyl)-benzoimidazol-1-yl]-ethanone] was tested, and the Activity was “inactive”.
With `O=C(Cn1c(CC(F)(F)F)nc2cc(Cl)c(Cl)cc21)c1ccc(Cl)cc1` [Compound 85, 1-(4-Chloro-phenyl)-2-[5,6-dichloro-2-(2,2,2-trifluoro-ethyl)-benzoimidazol-1-yl]-ethanone] the Activity was “inactive”.
`COc1cccc(C(=O)Cn2c(CC(F)(F)F)nc3cc(Cl)c(Cl)cc32)c1` [Compound 86, 2-[5,6-Dichloro-2-(2,2,2-trifluoro-ethyl)-benzoimidazol-1-yl]-1-(3-methoxy-phenyl)-ethanone] was tested, and the Activity was “inactive”.
For `O=C(Cn1c(CC(F)(F)F)nc2cc(Cl)c(Cl)cc21)c1cccnc1` [Compound 87, 2-[5,6-Dichloro-2-(2,2,2-trifluoro-ethyl)-benzoimidazol-1-yl]-1-pyridin-3-yl-ethanone], the Activity was “inactive”.
In the case of `O=C(Cn1c(CC(F)(F)F)nc2cc(Cl)c(Cl)cc21)c1ccc(-c2ccccn2)s1` [Compound 88, 2-[5,6-Dichloro-2-(2,2,2-trifluoro-ethyl)-benzoimidazol-1-yl]-1-(5-pyridin-2-yl-thiophen-2-yl)-ethanone], the Activity is reported as “inactive”.
`Fc1ccc(Cn2c(CC(F)(F)F)nc3cc(Cl)c(Cl)cc32)cc1` [Compound 89, 5,6-Dichloro-1-(4-fluoro-benzyl)-2-(2,2,2-trifluoro-ethyl)-1H-benzoimidazole] was tested, and the Activity was “active”.
In the case of `COc1ccccc1C(=O)Cn1c(CC(F)(F)F)nc2cc(Cl)c(Cl)cc21` [Compound 90, 2-[5,6-Dichloro-2-(2,2,2-trifluoro-ethyl)-benzoimidazol-1-yl]-1-(2-methoxy-phenyl)-ethanone], the Activity is reported as “inactive”.
In the case of `O=C(Cn1c(CC(F)(F)F)nc2cc(Cl)c(Cl)cc21)c1cccs1` [Compound 91, 2-[5,6-Dichloro-2-(2,2,2-trifluoro-ethyl)-benzoimidazol-1-yl]-1-thiophen-2-yl-ethanone], the Activity is reported as “active”.
For `O=C(Cn1c(CC(F)(F)F)nc2cc(Cl)c(Cl)cc21)c1ccccn1` [Compound 92, 2-[5,6-Dichloro-2-(2,2,2-trifluoro-ethyl)-benzoimidazol-1-yl]-1-pyridin-2-yl-ethanone], the Activity was “active”.
In the case of `FC(F)(F)Cc1nc2cc(Cl)c(Cl)cc2n1Cc1cccc(C(F)(F)F)c1` [Compound 93, 5,6-Dichloro-2-(2,2,2-trifluoro-ethyl)-1-(3-trifluoromethyl-benzyl)-1H-benzoimidazole], the Activity is reported as “active”.
`Fc1c(F)c(F)c(Cn2c(CC(F)(F)F)nc3cc(Cl)c(Cl)cc32)c(F)c1F` [Compound 94, 5,6-Dichloro-1-pentafluorophenylmethyl-2-(2,2,2-trifluoro-ethyl)-1H-benzoimidazole] was tested, and the Activity was “inactive”.
In the case of `Cc1cccc(Cn2c(CC(F)(F)F)nc3cc(Cl)c(Cl)cc32)c1` [Compound 95, 5,6-Dichloro-1-(3-methyl-benzyl)-2-(2,2,2-trifluoro-ethyl)-1H-benzoimidazole], the Activity is reported as “inactive”.
In the case of `O=C(Cn1c(CC(F)(F)F)nc2cc(Cl)c(Cl)cc21)c1cccc([N+](=O)[O-])c1` [Compound 96, 2-[5,6-Dichloro-2-(2,2,2-trifluoro-ethyl)-benzoimidazol-1-yl]-1-(3-nitro-phenyl)-ethanone], the Activity is reported as “inactive”.
